# Measurements as given in patent US20260285850A1, “SUBSTITUTED OXAZOLIDINONES AND IMIDAZOLINONES AS HERBICIDES” (FMC CORPORATION, priority 2023, published 2026).
# What was measured:
# Assay type in all cases: in vivo
# [1] = tested on: barnyardgrass (Echinochloa crus-galli); assay: Test A preemergence soil spray, visual injury rating 0-100; conditions: 10 days, 0 = no effect, 100 = complete control
# Outline: (§1)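 Seeds sown in loam-sand blend got a preemergence directed soil spray, or emerged plants (2-10 cm, one- to two-leaf) got a postemergence spray, of compound in non-phytotoxic solvent with surfactant. After 10 days in greenhouse, injury rated visually versus untreated controls on a 0 (no effect) to 100 (complete control) scale.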
# [2] = tested on: blackgrass (Alopecurus myosuroides); assay: as above; conditions: 10 days, 0 = no effect, 100 = complete control
# Outline: as §1
# corn (Zea mays) [3] = assay: as above; conditions: 10 days, 0 = no effect, 100 = complete control
# Outline: as §1
# [4] = tested on: green foxtail (Setaria viridis); assay: as above; conditions: 10 days, 0 = no effect, 100 = complete control
# Outline: as §1
# kochia (Bassia scoparia) [5] = assay: as above; conditions: 10 days, 0 = no effect, 100 = complete control
# Outline: as §1
# [6] = tested on: oat, wild (wild oat, Avena fatua); assay: as above; conditions: 10 days, 0 = no effect, 100 = complete control
# Outline: as §1
# [7] = tested on: palmer (palmer amaranth, palmer pigweed, Amaranthus palmeri); assay: as above; conditions: 10 days, 0 = no effect, 100 = complete control
# Outline: as §1
# [8] = tested on: ragweed (common ragweed, Ambrosia artemisiifolia); assay: as above; conditions: 10 days, 0 = no effect, 100 = complete control
# Outline: as §1
# [9] = tested on: ryegrass, Italian (italian ryegrass, Lolium multiflorum); assay: as above; conditions: 10 days, 0 = no effect, 100 = complete control
# Outline: as §1
# soybean (Glycine max) [10] = assay: as above; conditions: 10 days, 0 = no effect, 100 = complete control
# Outline: as §1
# [11] = tested on: wheat (Triticum aestivum); assay: as above; conditions: 10 days, 0 = no effect, 100 = complete control
# Outline: as §1
# [12] = tested on: barnyardgrass (Echinochloa crus-galli); assay: Test A postemergence application, visual injury rating 0-100; conditions: 10 days
# Outline: as §1
# [13] = tested on: blackgrass (Alopecurus myosuroides); assay: as above; conditions: 10 days
# Outline: as §1
# corn (Zea mays) [14] = assay: as above; conditions: 10 days
# Outline: as §1
# [15] = tested on: galium (catchweed bedstraw, Galium aparine); assay: as above; conditions: 10 days
# Outline: as §1
# [16] = tested on: green foxtail (Setaria viridis); assay: as above; conditions: 10 days
# Outline: as §1
# [17] = tested on: horseweed (Erigeron canadensis); assay: as above; conditions: 10 days
# Outline: as §1
# kochia (Bassia scoparia) [18] = assay: as above; conditions: 10 days
# Outline: as §1
# [19] = tested on: oat, wild (wild oat, Avena fatua); assay: as above; conditions: 10 days
# Outline: as §1
# [20] = tested on: palmer (palmer amaranth, palmer pigweed, Amaranthus palmeri); assay: as above; conditions: 10 days
# Outline: as §1
# [21] = tested on: ragweed (common ragweed, Ambrosia artemisiifolia); assay: as above; conditions: 10 days
# Outline: as §1
# [22] = tested on: ryegrass, Italian (italian ryegrass, Lolium multiflorum); assay: as above; conditions: 10 days
# Outline: as §1
# soybean (Glycine max) [23] = assay: as above; conditions: 10 days
# Outline: as §1
# [24] = tested on: wheat (Triticum aestivum); assay: as above; conditions: 10 days
# Outline: as §1
# [25] = tested on: barnyardgrass (Echinochloa crusgalli); assay: Test B flooded paddy test, visual plant response rating 0-100; conditions: 250 g ai/ha, Flood, applied to paddy water, evaluated after 13 days
# Outline: (§2)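 In this flooded assay, 2-leaf seedlings received compound through the water layer, kept at 3 cm over the soil. Plants were held 13 days in a greenhouse and then visually compared with control pots.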
# [26] = tested on: ducksalad (Heteranthera limosa); assay: as above; conditions: 250 g ai/ha, Flood, applied to paddy water, evaluated after 13 days
# Outline: as §2
# rice (Oryza sativa) = assay: as above; conditions: 250 g ai/ha, Flood, applied to paddy water, evaluated after 13 days
# Outline: as §2
# [27] = tested on: sedge, umbrella (small-flower umbrella sedge, Cyperus difformis); assay: as above; conditions: 250 g ai/ha, Flood, applied to paddy water, evaluated after 13 days
# Outline: as §2
# [28] = 31 g ai/ha, postemergence, 0 = no effect, 100 = complete control
# [29] = Postemergence, 125 g ai/ha, 0 is no effect, 100 is complete control
smiles,measurement,setting,value
CC1(C(=O)NC2C=CC(C(=O)OCc3ccc(F)cc3)C2)CN(c2cc(F)cc(F)c2)C(=O)O1 (stereo not shown) [Compound 54],Barnyardgrass plant response rating (0-100),[1]; 31 g ai/ha,30
same,Barnyardgrass plant response rating (0 to 100 scale),[1]; 125 g ai/ha,100
same,Blackgrass plant response rating (0-100),[2]; 31 g ai/ha,20
same,Blackgrass plant response rating (0 to 100 scale),[2]; 125 g ai/ha,60
same,Corn plant response rating (0-100),corn (Zea mays) [3]; 31 g ai/ha,0
same,Corn plant response rating (0 to 100 scale),corn (Zea mays) [3]; 125 g ai/ha,30
same,"Foxtail, Green plant response rating (0-100)",[4]; 31 g ai/ha,0
same,"Foxtail, Green plant response rating (0 to 100 scale)",[4]; 125 g ai/ha,30
same,Kochia plant response rating (0-100),kochia (Bassia scoparia) [5]; 31 g ai/ha,0
same,Kochia plant response rating (0 to 100 scale),kochia (Bassia scoparia) [5]; 125 g ai/ha,90
same,"Oat, Wild plant response rating (0-100)",[6]; 31 g ai/ha,0
same,"Oat, Wild plant response rating (0 to 100 scale)",[6]; 125 g ai/ha,90
same,"Amaranth, Palmer plant response rating (0-100)",[7]; 31 g ai/ha,10
same,"Amaranth, Palmer plant response rating (0 to 100 scale)",[7]; 125 g ai/ha,100
same,Ragweed plant response rating (0-100),[8]; 31 g ai/ha,0
same,Ragweed plant response rating (0 to 100 scale),[8]; 125 g ai/ha,0
same,"Ryegrass, Italian plant response rating (0-100)",[9]; 31 g ai/ha,50
same,"Ryegrass, Italian plant response rating (0 to 100 scale)",[9]; 125 g ai/ha,100
same,Soybean plant response rating (0-100),soybean (Glycine max) [10]; 31 g ai/ha,10
same,Soybean plant response rating (0 to 100 scale),soybean (Glycine max) [10]; 125 g ai/ha,70
same,Wheat plant response rating (0-100),[11]; 31 g ai/ha,80
same,Wheat plant response rating (0 to 100 scale),[11]; 125 g ai/ha,90
same,Barnyardgrass plant response rating (0-100),[12]; [28],70
same,Barnyardgrass plant response rating (0 to 100 scale),[12]; [29],100
same,Blackgrass plant response rating (0-100),[13]; [28],80
same,Blackgrass plant response rating (0 to 100 scale),[13]; [29],90
same,Corn plant response rating (0-100),corn (Zea mays) [14]; [28],90
same,Corn plant response rating (0 to 100 scale),corn (Zea mays) [14]; [29],100
same,Galium plant response rating (0-100),[15]; [28],80
same,Galium plant response rating (0 to 100 scale),[15]; [29],80
same,"Foxtail, Green plant response rating (0-100)",[16]; [28],40
same,"Foxtail, Green plant response rating (0 to 100 scale)",[16]; [29],60
same,Horseweed plant response rating (0-100),[17]; [28],20
same,Horseweed plant response rating (0 to 100 scale),[17]; [29],80
same,Kochia plant response rating (0-100),kochia (Bassia scoparia) [18]; [28],70
same,Kochia plant response rating (0 to 100 scale),kochia (Bassia scoparia) [18]; [29],90
same,"Oat, Wild plant response rating (0-100)",[19]; [28],90
same,"Oat, Wild plant response rating (0 to 100 scale)",[19]; [29],100
same,"Amaranth, Palmer plant response rating (0-100)",[20]; [28],90
same,"Amaranth, Palmer / Pigweed, Palmer plant response rating (0 to 100 scale)",[20]; [29],100
same,Ragweed plant response rating (0-100),[21]; [28],50
same,Ragweed plant response rating (0 to 100 scale),[21]; [29],60
same,"Ryegrass, Italian plant response rating (0-100)",[22]; [28],70
same,"Ryegrass, Italian plant response rating (0 to 100 scale)",[22]; [29],90
same,Soybean plant response rating (0-100),soybean (Glycine max) [23]; [28],60
same,Soybean plant response rating (0 to 100 scale),soybean (Glycine max) [23]; [29],60
same,Wheat plant response rating (0-100),[24]; [28],90
same,Wheat plant response rating (0 to 100 scale),[24]; [29],90
same,"Plant response rating, Barnyardgrass (0 to 100 scale, 0 is no effect and 100 is complete control)",[25],90
same,"Plant response rating, Ducksalad (0 to 100 scale, 0 is no effect and 100 is complete control)",[26],95
same,"Plant response rating, Rice (0 to 100 scale, 0 is no effect and 100 is complete control)",rice (Oryza sativa),15
same,"Plant response rating, Sedge, Umbrella (0 to 100 scale, 0 is no effect and 100 is complete control)",[27],95
